According to the supplement of paper PMC10307832:

Columns and labels:
Test in all cases: relative viability (nuclei count vs DMSO), 5 days (fraction); higher = more cells survive
[1] = compound: CCC1=CN=CN=C1N2CCN(CC2)CC3=NC4=C(N3)C=C(C=C4)C(F)(F)F + CC(C)C[C@H](NC(=O)[C@H](Cc1ccccc1)NC(=O)c1cnccn1)B(O)O [Bortezomib] (partner 0.002 µM)
In short: (§1)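 Relative viability was taken as the ratio of nuclei in treated wells to nuclei in vehicle wells. Lung cancer cell lines in 1536-well plates received compounds by pin tool one day after seeding, either one drug alone or a fixed anchor-drug dose plus five library-drug doses (not always all listed) in √10 steps. Nuclei were counted on 4× images after 5 days of treatment, and values are medians of duplicate plates.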

[2] = compound: CCn1c(-c2nonc2N)nc2cnc(Oc3cccc(NC(=O)c4ccc(OCCN5CCOCC5)cc4)c3)cc21 + Nc1ncn([C@H]2C[C@H](O)[C@@H](CO)O2)c(=O)n1 [Decitabine] (partner 2 µM)
In short: as §1

[3] = compound: CCC1=CN=CN=C1N2CCN(CC2)CC3=NC4=C(N3)C=C(C=C4)C(F)(F)F + Cc1cc(Nc2cc(N3CCN(C)CC3)nc(Sc3ccc(NC(=O)C4CC4)cc3)n2)n[nH]1 [Tozasertib] (partner 0.1 µM)
In short: as §1

[4] = compound: CCn1c(-c2nonc2N)nc2cnc(Oc3cccc(NC(=O)c4ccc(OCCN5CCOCC5)cc4)c3)cc21 + N=C(N)NC(=N)NCCc1ccccc1 [Phenformin] (partner 250 µM)
In short: as §1

Row | Cell Line | relative viability ([1]; first compound 0.04 µM) | relative viability ([1]; first compound 0.1265 µM) | relative viability ([1]; first compound 0.4 µM) | relative viability ([1]; first compound 1.265 µM) | relative viability ([1]; first compound 4 µM) | relative viability ([2]; first compound 0.04 µM) | relative viability ([2]; first compound 0.1265 µM) | relative viability ([2]; first compound 0.4 µM) | relative viability ([2]; first compound 1.265 µM) | relative viability ([2]; first compound 4 µM) | relative viability ([3]; first compound 0.04 µM) | relative viability ([3]; first compound 0.1265 µM) | relative viability ([3]; first compound 0.4 µM) | relative viability ([3]; first compound 4 µM) | relative viability ([4]; first compound 0.04 µM) | relative viability ([4]; first compound 0.1265 µM) | relative viability ([4]; first compound 0.4 µM) | relative viability ([4]; first compound 1.265 µM) | relative viability ([4]; first compound 4 µM) | relative viability ([3]; first compound 1.265 µM)
1 | EBC-1 | 0.557 | 0.528 | 0.6 | 0.458 | 0.486 |  |  |  |  |  |  |  |  |  |  |  |  |  |  | 
2 | EKVX | 0.994 | 0.945 | 0.983 | 0.952 | 1.13 | 0.397 | 0.381 | 0.331 | 0.35 | 0.34 | 0.477 | 0.367 | 0.346 | 0.445 | 0.275 | 0.242 | 0.136 | 0.227 | 0.236 | 
3 | EMC-BAC-2 | 1.07 | 1.01 | 1.05 | 0.917 | 1.15 | 0.957 | 0.894 | 0.771 | 0.386 | 0.465 | 0.293 | 0.3 | 0.279 | 0.268 | 0.502 | 0.387 | 0.259 | 0.176 | 0.178 | 
4 | EPLC-272H | 0.696 | 0.885 | 0.829 | 1.43 | 1.08 | 0.469 | 0.442 | 0.374 | 0.299 | 0.375 | 0.257 | 0.225 | 0.262 | 0.332 | 0.369 | 0.306 | 0.216 | 0.245 | 0.229 | 0.327
5 | H3255 | 0.671 | 0.849 | 0.739 | 0.816 | 0.756 | 0.774 | 0.594 | 0.63 | 0.403 | 0.518 | 0.63 | 0.413 | 0.674 | 0.715 | 0.455 | 0.35 | 0.332 | 0.322 | 0.358 | 0.436
6 | HARA | 1.12 | 1.05 | 1.06 | 1.01 | 0.964 | 0.598 | 0.665 | 0.684 | 0.283 | 0.206 | 0.106 | 0.108 | 0.0892 | 0.0831 | 0.585 | 0.369 | 0.231 | 0.0981 | 0.074 | 
7 | HCC-15 | 0.931 | 0.921 | 0.953 | 1.08 | 1.05 | 0.608 | 0.516 | 0.446 | 0.427 | 0.507 | 0.444 | 0.357 | 0.381 | 0.391 | 0.532 | 0.362 | 0.269 |  | 0.364 | 0.449
8 | HCC-44 | 0.853 | 0.798 | 0.854 | 0.89 | 0.866 | 0.868 | 1.06 | 0.738 | 0.728 | 0.429 | 0.955 | 0.962 | 0.905 | 1.06 | 0.249 | 0.216 | 0.113 | 0.096 | 0.074 | 0.597
9 | HCC-78 | 0.538 | 0.592 | 0.59 | 0.528 | 0.517 | 0.613 | 0.78 |  | 0.74 | 0.634 | 0.572 | 0.549 | 0.446 | 0.376 | 0.789 | 0.934 |  | 0.766 | 0.881 | 0.434
